According to patent US11773086B2, “Fungal modulators” (TRUSTEES OF BOSTON UNIVERSITY, priority 2020, dated 2023):

Test system: C. albicans
Assay: Checkerboard with fluconazole, clinical isolates CaCi-2 and CaCi-17
Assay type: cell-based, Candida albicans
Method: FIG. 9A depicts checkerboard assays as described in FIG. 2B and performed with isolates of C. albicans. CaCi-2 and CaCi-17 represent early and late clinical isolates in which FLC resistance evolved over time. Growth was measured at 24 hours using OD600 and normalized to a no drug control well (see color bar). FIG. 9B depicts dose response assays conducted in YPD medium with a C. albicans parental strain, and strains with gain of function mutations in TAC1 as indicated. FLC was tittered in a two-fold dilution on the x-axis in the absence and presence of 50 μM azoffluxin. Growth was measured at 24 hours using OD600 and normalized to a no drug control well (see color bar). […] FIGS. 9D and 9E depict the intracellular concentrations of FLC and azoffluxin measured after treatment (combo treatment at 6.25 μM azoffluxin and 8 μg/mL FLC) for 1 hour by LC-MS. […] Significance was determined by an unpaired student t-test of each combination to the respective compound alone treatment, (*) indicates a p-value<0.05 and (**) indicates a p-value<0.01.
Compound potency was assessed alone by dose response assays or in combination with another compound by dose-response matrixes in 96-well plates, or 384-well, flat-bottom, microtiter plates (Corning) as previously described. […] Growth was quantified by measuring OD600 and corrected for medium background. […]

With `C=C(C)C[C@@H](O)COc1cc2c(cc1C1(c3cc4c(cc3OC[C@H](O)CC(=C)C)OCO4)C(=O)Nc3cc(F)ccc31)OCO2` [CMLD012336] as the compound, how does the potentiation of fluconazole (early clinical isolate CaCi-2) read?
The potentiation of fluconazole was “No potentiation”.

What about the potentiation of fluconazole (late clinical isolate CaCi-17) of the same compound?
Its potentiation of fluconazole is “did potentiate fluconazole”.
